Experimental data published in ChEMBL document CHEMBL1137013, “Discovery of (2R)-2-(3-{3-[(4-Methoxyphenyl)carbonyl]-2-methyl-6-(trifluoromethoxy)-1H-indol-1-yl}phenoxy)butanoic acid (MK-0533): a novel selective peroxisome proliferator-activated receptor gamma modulator for the treatment of type 2 diabetes mellitus with a reduced potential to increase plasma …” (J Med Chem, 2009).
Calls of active or inactive are those of the source. The calls are words filed in the database; no cut-off is given here.

Key:
[1] = tested on: Rattus norvegicus; test: Antidiabetic activity in obese insulin-resistant Zucker fa/fa rat assessed as decrease in plasma insulin level at 3 to 150 mg/kg, po once daily for 7 days; format: functional, organism-based
[2] = tested on: Liver microsomes; test: Protein binding in human liver microsomes assessed per mg of protein; format: ADME, Microsome
[3] = tested on: Rattus norvegicus; test: Toxicity in Sprague-Dawley rat assessed as brown adipose tissue weight at 300 mg/kg dosed daily for 2 weeks; format: organism-based; parameters: dose 300 mg/kg; settings: in vivo, 336 h
[4] = Terminal half life in dog; format: ADME, organism-based, Canis lupus familiaris; settings: in vivo, read-out: beta t1/2 (converted)
[5] = Cmax in dog; format: ADME, organism-based, Canis lupus familiaris; settings: in vivo
[6] = Plasma clearance in monkey; format: ADME, organism-based, Macaca mulatta; settings: rhesus monkey
[7] = biological target: T1, Peroxisome proliferator-activated receptor delta (Homo sapiens) (UniProt Q03181); test: Displacement of [3H2]nTZD4 from human recombinant GST-fused PPARdelta expressed in Escherichia coli at 10 uM by scintillation proximity assay
T1 sequence (whole entry): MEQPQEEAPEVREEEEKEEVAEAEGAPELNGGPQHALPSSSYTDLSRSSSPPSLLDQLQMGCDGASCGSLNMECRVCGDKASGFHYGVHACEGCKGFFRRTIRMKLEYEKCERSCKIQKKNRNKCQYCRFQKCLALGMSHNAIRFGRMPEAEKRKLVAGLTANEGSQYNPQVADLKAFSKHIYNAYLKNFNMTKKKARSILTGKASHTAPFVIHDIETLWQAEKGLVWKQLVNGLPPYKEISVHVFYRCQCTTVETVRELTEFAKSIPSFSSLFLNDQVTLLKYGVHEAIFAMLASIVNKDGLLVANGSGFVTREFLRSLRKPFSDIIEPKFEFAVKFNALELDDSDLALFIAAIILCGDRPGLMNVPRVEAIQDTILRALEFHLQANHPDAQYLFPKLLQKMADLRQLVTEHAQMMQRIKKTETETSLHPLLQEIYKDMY

[8] = Plasma clearance in rat; format: ADME, organism-based
[9] = AUC in obese insulin-resistant Zucker fa/fa rat at 30 mg/kg, po once daily for 7 days; format: ADME, organism-based; parameters: dose 30 mg/kg, route oral; settings: plasma
[10] = tested on: Liver microsomes; test: Protein binding in rat liver microsomes assessed per mg of protein; format: ADME, Microsome
[11] = biological target: T2, Peroxisome proliferator-activated receptor alpha (Mus musculus, UniProt P23204); test: Agonist activity at mouse PPARalpha; format: functional; settings: read-out: EC50
T2 sequence (P23204 whole entry): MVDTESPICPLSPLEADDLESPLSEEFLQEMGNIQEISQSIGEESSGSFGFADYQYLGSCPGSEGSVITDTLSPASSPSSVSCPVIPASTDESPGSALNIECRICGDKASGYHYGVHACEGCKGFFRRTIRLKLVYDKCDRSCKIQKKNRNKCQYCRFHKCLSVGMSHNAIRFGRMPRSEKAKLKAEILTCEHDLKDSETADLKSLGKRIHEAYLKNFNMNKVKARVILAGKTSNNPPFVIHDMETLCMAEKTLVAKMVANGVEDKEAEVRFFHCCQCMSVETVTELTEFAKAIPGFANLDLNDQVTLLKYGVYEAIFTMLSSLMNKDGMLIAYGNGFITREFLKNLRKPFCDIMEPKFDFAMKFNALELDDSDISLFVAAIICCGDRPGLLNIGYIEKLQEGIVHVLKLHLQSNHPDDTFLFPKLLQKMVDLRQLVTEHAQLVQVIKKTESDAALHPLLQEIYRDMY

[12] = Cmax in rat; format: ADME, organism-based; settings: in vivo
[13] = AUC in db/db mouse at 30 mg/kg, po administered once daily for 11 days; format: ADME, organism-based; parameters: dose 30 mg/kg, route oral; settings: plasma
[14] = Agonist activity at hamster PPARalpha; format: functional, Cricetinae; settings: read-out: EC50
[15] = AUC in obese insulin-resistant Zucker fa/fa rat at 150 mg/kg, po once daily for 7 days; format: ADME, organism-based; parameters: dose 150 mg/kg, route oral; settings: plasma
[16] = Inhibition of CYP450; format: ADME
[17] = tested on: Plasma; test: Protein binding in rat plasma assessed per mg of protein; format: ADME, cell-free
[18] = Oral bioavailability in monkey; format: ADME, organism-based, Macaca mulatta; settings: rhesus monkey, in vivo
[19] = tested on: Mus musculus; test: Antihyperglycemic activity in db/db mouse assessed as reduction in blood glucose level at 30 mg/kg, po administered once daily for 11 days; format: functional; parameters: scale not given: the % may be the effect or the level left
[20] = biological target: T3, Peroxisome proliferator-activated receptor alpha (Homo sapiens) (UniProt Q07869); test: Agonist activity at human recombinant PPARalpha expressed in COS1 cells coexpressing GAL4 assessed as transcriptional activity at 3000 nM after 48 hrs by luciferase reporter gene assay; format: functional, cell-based; settings: COS-1
T3 sequence (whole entry): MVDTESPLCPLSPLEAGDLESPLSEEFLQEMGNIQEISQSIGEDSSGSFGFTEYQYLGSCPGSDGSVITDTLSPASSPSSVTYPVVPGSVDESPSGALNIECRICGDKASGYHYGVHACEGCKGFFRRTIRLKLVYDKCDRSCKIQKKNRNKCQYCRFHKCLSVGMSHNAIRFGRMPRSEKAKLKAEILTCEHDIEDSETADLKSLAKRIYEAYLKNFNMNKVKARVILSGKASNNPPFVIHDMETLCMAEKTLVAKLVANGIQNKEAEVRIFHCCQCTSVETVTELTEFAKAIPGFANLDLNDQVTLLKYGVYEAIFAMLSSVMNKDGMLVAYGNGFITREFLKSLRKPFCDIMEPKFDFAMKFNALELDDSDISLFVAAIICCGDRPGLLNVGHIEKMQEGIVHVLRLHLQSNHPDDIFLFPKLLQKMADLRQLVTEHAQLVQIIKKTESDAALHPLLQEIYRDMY

[21] = Cmax in monkey; format: ADME, organism-based, Macaca mulatta; settings: rhesus monkey, in vivo
[22] = Oral bioavailability in dog; format: ADME, organism-based, Canis lupus familiaris; settings: in vivo
[23] = biological target: T4, Peroxisome proliferator-activated receptor alpha (Homo sapiens, UniProt Q07869); test: Displacement of [3H2]nTZD3 from human recombinant GST-fused PPARalpha expressed in Escherichia coli by scintillation proximity assay
T4 sequence (Q07869 whole entry): T3 sequence (whole entry)

CC[C@@H](Oc1cccc(-n2c(C)c(C(=O)c3ccc(OC)cc3)c3ccc(OC(F)(F)F)cc32)c1)C(=O)O [MK-0533]
Activity [1]: Active | PB [2]: < 10 pmol | Activity [3]: 537 mg | half-life [4]: 3.6 h | Cmax [5]: 2400 nM | clearance [6]: 10.1 mL/min/kg | Activity [7]: inactive | clearance [8]: 18.3 mL/min/kg | AUC at 168 h [9]: 115 µM·h | PB [10]: < 10 pmol | EC50 [11]: 240 nM | Cmax [12]: 1000 nM | AUC at 264 h [13]: 60 µM·h | EC50 [14]: 330 nM | AUC at 168 h [15]: 4520 µM·h | INH [16]: > 10 µM | PPB [17]: < 10 pmol | bioavailability [18]: 25% | Activity [19]: 83% | Activity [20]: 33% | Cmax [21]: 500 nM | bioavailability [22]: 59% | IC50 [23]: > 50000 nM
